Laboratory results reported in US7960438B2, “Use of agomelatine in obtaining medicaments intended for the treatment of generalized anxiety disorder” (Les Laboratoires Servier, priority 2006, dated 2011).

System: patients suffering from Generalized Anxiety Disorder
Test: Clinical study versus placebo in Generalized Anxiety Disorder
Type: in vivo
Experimental: A clinical study versus placebo has been carried out in 121 patients. Those 121 patients have been randomised in two parallel groups and received either agomelatine at 25 mg per day or placebo.
After treatment for two weeks, and in case of low response, doses have been increased to 50 mg per day in double blind study for patients receiving agomelatine with a IVRS system (Interactive Voice Response System). Treatment for 12 weeks was carried out.
The efficacy has been appreciated with evaluation tools recommended by the health authorities, such as the Hamilton Anxiety Scale (Hamilton M., J. Neurol. Neurosurg. Psychiat., 1959, 23, 56-62), or the Sheehan Disability Scale (International Clinical Psychopharmacology, 1996, 11, 89-95). The acceptability profile has also been evaluated.

- acceptability profile for the patients (25 mg per day (up to 50 mg per day), 12 weeks): good acceptability profile
- discontinuation syndrome when the treatment was stopped (after stopping 12 weeks treatment): absence of the discontinuation syndrome
SMILES: COc1ccc2cccc(CCNC(C)=O)c2c1 [agomelatine, N-[2-(7-methoxy-1-naphthyl)ethyl]acetamide]
- difference between agomelatine group and placebo group on the total score of the Hamilton Anxiety Scale (121 patients, 25 mg per day (increased to 50 mg per day in case of low response after two weeks), 12 weeks, p=0.040): −3.28
